Reference: patent US20130150430A1, “Methods for Impairing the P53/HDM2 Auto-Regulatory Loop in Multiple Myeloma Development Using mIR-192, mIR-194 and mIR-215” (THE OHIO STATE UNIVERSITY, priority 2011, published 2013)

Test system: KMS-28BM cells
Test: Cell cycle analysis by flow cytometry (sub-G1)
Assay type: cell-based, human
Settings: 48 hr after transfection; Scr control ~3%
Experimental: FIG. 3G, FIG. 3H, FIG. 31, FIG. 3J: Flow cytometry analysis in MM1s (FIG. 3G), NCI-H929 (FIG. 3H) and KMS28BM (FIG. 31) cells (miR-192, miR-194, miR-215 and Scr transfected) at 48 hr of transfection, after first being arrested and synchronized in G2/M phase by Nocodazole for 16 hr. Apoptosis in KMS28BM was evaluated by caspase-3 activity (FIG. 3J). All experiments were performed in triplicate ±SD.
Nocodazole was (Sigma-Aldrich) was dissolved in DMSO as a stock solution of 10 mg/ml for cell cycle arrest in G2/M phase. Cells were first arrested and synchronized in G2/M phase by growth in 80 nM nocodazole for 16 hr. Cells were then washed and fresh medium added. After 6 hr, cell cycle analysis was performed by propidium iodide staining. Corresponding amounts of DMSO alone were added in control experiments. […] For DNA content analysis, cells were fixed in methanol at −20° C., washed again, rehydrated, re-suspended in PBS containing 50 μg/ml propidium iodide (PI) and 50 μg/ml RNase A, and analyzed by flow cytometry (Becton Dickinson). […] After the treatment the cells were analyzed using Caspase-Glo 3 Assay kit (Promega) according to the manufacturer's instructions. Continuous variables were expressed as mean values ± standard deviation (s.d.).

miR-215: microRNA, p53-activated, down-regulated in MM; transfected as miRNA precursor (Ambion) or lentivector; SEQ ID NO:58 (AUGACCUAUGAAUUGACAGAC; listed as RNA, chemistry not given here; listed as Homo sapiens)
sub-G1 fraction (indicative of cell death): 30%

miR-192: microRNA, p53-activated, down-regulated in MM; transfected as miRNA precursor (Ambion) or lentivector; SEQ ID NO:56 (CUGACCUAUGAAUUGACAGCC; listed as RNA, chemistry not given here; listed as Homo sapiens)
sub-G1 fraction (indicative of cell death): ~25%
